Test results as given in patent US20130102591A1, “COMPOSITIONS AND METHODS FOR PREVENTION AND TREATMENT OF PULMONARY HYPERTENSION” (priority 2010, published 2013).
Entries after “also recorded” stand apart in the source; their conditions may differ.

Legend:
[1] = system: MCT-induced pulmonary hypertension; details: reported in the literature; cited from earlier work
[2] = Solubility in solvents and aqueous liquids
[3] = system: MCT-induced pulmonary hypertension; test: Mean pulmonary arterial pressure in the monocrotaline (MCT) rat pulmonary hypertension model; format: in vivo, Sprague-Dawley rats; details: 10 days of therapy starting 38 days after MCT
Procedure: (§1) Adult male Sprague-Dawley rats (250-350 g) (3 groups; n=5 per group) were treated with a single subcutaneous injection of monocrotaline (MCT; 60 mg/kg), a plant poison that induces a well-characterized experimental model of pulmonary hypertension, or an equivalent volume of saline (2 ml/kg; control). […] At the conclusion of the 10-day dosing period, rats were anesthetized and instrumented, and resting hemodynamic indices were recorded.
Rats were anesthetized with intramuscular ketamine (90 mg/kg) and pentobarbital sodium (15 mg/kg). The trachea was exposed and cannulated with a plastic tube that was connected to a Harvard ventilator. The animals were ventilated with room air at a tidal volume of 1.5 ml at a rate of 100 breaths/minute. A polyethylene catheter (PE-50) was inserted into the right carotid artery to measure the mean systemic arterial pressure (SAP). A polyvinyl (PV-1) catheter was inserted through the right jugular vein via the right atrium and ventricle into the pulmonary artery for measurement of the mean pulmonary arterial pressure (MPAP).

[4] = Tolerability during 10-day dosing in MCT rats (body weight, activity level); format: in vivo, Sprague-Dawley rats
Procedure: as §1

[5] = system: MCT-induced histological alterations in the lung; test: Lung histology (optical microscopy) in the MCT rat pulmonary hypertension model; format: in vivo, Sprague-Dawley rats; details: for Fibrosis score: 10 days starting 38 days after MCT; for Effect on histological lung injury (alveolar damage, inflammatory cell infiltrate, vascular smooth muscle hypertrophy), in words: groups 3 and 4 versus vehicle control (group 2)
Procedure: as §1
The lower lobe of the right lung was fixed with formalin solution. After paraffin embedding, […] sections were stained with haematoxylin and eosin and observed in a Dialux 22 Leitz (Wetziar, Germany) microscope. The score of lung fibrosis was assessed on sections stained with Masson Trichrome staining. For morphometric evaluations, all three lobes of right lung were inspected. […] Results are expressed as the percentage of vessels presenting indices of disease relative to the total number of vessels counted in the sections.

[6] = listed as 3-nitratomethyl-2,2,5,5-tetramethylpyrrolidinyloxy
[7] = Group 3: MCT + compound 1a, 1.5 mg/kg/day BID, IP
[8] = Group 4: MCT + compound 1a, 2 mg/kg/day BID, PO

Compound | Effect in the same rodent model with comparably delayed initiation of therapy [1] | Solubility in ethyl acetate and dimethylsulfoxide (DMSO) [2] | Solubility in non-toxic aqueous liquids suitable for human administration ([2]; water, saline, dextrose solution, polyethylene glycol) | Effect on elevation of pulmonary (arterial) hypertension, in words [3] | Effect on elevation of pulmonary (arterial) hypertension, in words [3, 6] | Effect on body weight or activity level [4] | Tolerability [4] | Protection by chronic oral (enteral) treatment compared with IP treatment ([5]; 2 mg/kg/day PO versus 1.5 mg/kg/day BID IP) | Alveolar damage [5, 7] | Angioedema score [5, 7] | Muscolaris thickening score [5, 7] | Perivascular infiltrate score [5, 7] | Fibrosis score [5, 7] | Alveolar damage [5, 8] | Angioedema score [5, 8] | Muscolaris thickening score [5, 8] | Perivascular infiltrate score [5, 8] | Fibrosis score [5, 8] | Effect on histological lung injury (alveolar damage, inflammatory cell infiltrate, vascular smooth muscle hypertrophy), in words [5] | Effect on histological lung injury (alveolar damage, inflammatory cell infiltrate, vascular smooth muscle hypertrophy), in words [5, 6]
COc1ccccc1Oc1c(NS(=O)(=O)c2ccc(C(C)(C)C)cc2)nc(-c2ncccn2)nc1OCCO [bosentan] | no effect | – | – | – | – | – | – | – | – | – | – | – | – | – | – | – | – | – | – | –
CC1(C)CC(CO[N+](=O)[O-])C(C)(C)N1[O] (centres unmarked) [compound 1a, 3-nitratomethyl-2,2,5,5-tetramethylpyrrolidinyloxy] | – | soluble | insoluble | highly effective; also recorded: significantly reduced | significantly reduced | absence of any effect | well tolerated | slightly more protective | 0.50 ± 0.35 | 10.00 ± 8.86 percentage of vessels | 0.00 ± 0.00 percentage of vessels | 5.95 ± 5.71 percentage of vessels | 0.80 ± 0.57 | 0.70 ± 0.45 | 7.00 ± 2.78 percentage of vessels | 0.00 ± 0.00 percentage of vessels | 6.06 ± 2.44 percentage of vessels | 1.00 ± 0.79 | significantly reduced; also recorded: remarkably reduced | significantly reduced
